Experimental data taken from the supplement of paper PMC10307832.

Legend:
Experiment in all cases: relative viability (nuclei count vs DMSO), 5 days (fraction); higher = more cells survive
FG-4592 + Dasatinib = compound: Cc1nc(C(=O)NCC(=O)O)c(O)c2ccc(Oc3ccccc3)cc12 [FG-4592] + Cc1nc(Nc2ncc(C(=O)Nc3c(C)cccc3Cl)s2)cc(N2CCN(CCO)CC2)n1 [Dasatinib] (partner 0.075 µM)
Outline: (§1)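 Lung cancer cell lines in 1536-well plates got either a single drug or a fixed anchor-drug dose together with five library-drug doses (not always all listed) in √10 steps, by pin tool, on the day after seeding. Nuclei were counted after 5 days, and relative viability is the treated-to-vehicle ratio of nuclei counts. Values are medians of duplicate plates.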

IU1-47 + Decitabine = compound: CC1=CC(=C(N1C2=CC=C(C=C2)Cl)C)C(=O)CN3CCCCC3 [IU1-47] + Nc1ncn([C@H]2C[C@H](O)[C@@H](CO)O2)c(=O)n1 [Decitabine] (partner 2 µM)
Outline: as §1

FG-4592 + Luminespib = compound: Cc1nc(C(=O)NCC(=O)O)c(O)c2ccc(Oc3ccccc3)cc12 [FG-4592] + CCNC(=O)c1noc(-c2cc(C(C)C)c(O)cc2O)c1-c1ccc(CN2CCOCC2)cc1 [Luminespib] (partner 0.01 µM)
Outline: as §1

IU1-47 + Bortezomib = compound: CC1=CC(=C(N1C2=CC=C(C=C2)Cl)C)C(=O)CN3CCCCC3 [IU1-47] + CC(C)C[C@H](NC(=O)[C@H](Cc1ccccc1)NC(=O)c1cnccn1)B(O)O [Bortezomib] (partner 0.002 µM)
Outline: as §1

| Cell Line | relative viability (FG-4592 + Dasatinib; first compound 0.08 µM) | relative viability (FG-4592 + Dasatinib; first compound 0.253 µM) | relative viability (FG-4592 + Dasatinib; first compound 0.8 µM) | relative viability (FG-4592 + Dasatinib; first compound 2.53 µM) | relative viability (FG-4592 + Dasatinib; first compound 8 µM) | relative viability (IU1-47 + Decitabine; first compound 0.08 µM) | relative viability (IU1-47 + Decitabine; first compound 0.253 µM) | relative viability (IU1-47 + Decitabine; first compound 0.8 µM) | relative viability (IU1-47 + Decitabine; first compound 2.53 µM) | relative viability (IU1-47 + Decitabine; first compound 8 µM) | relative viability (FG-4592 + Luminespib; first compound 0.08 µM) | relative viability (FG-4592 + Luminespib; first compound 0.253 µM) | relative viability (FG-4592 + Luminespib; first compound 0.8 µM) | relative viability (FG-4592 + Luminespib; first compound 2.53 µM) | relative viability (FG-4592 + Luminespib; first compound 8 µM) | relative viability (IU1-47 + Bortezomib; first compound 0.08 µM) | relative viability (IU1-47 + Bortezomib; first compound 0.8 µM) | relative viability (IU1-47 + Bortezomib; first compound 2.53 µM) | relative viability (IU1-47 + Bortezomib; first compound 8 µM) | relative viability (IU1-47 + Bortezomib; first compound 0.253 µM) |
| --- | --- | --- | --- | --- | --- | --- | --- | --- | --- | --- | --- | --- | --- | --- | --- | --- | --- | --- | --- | --- |
| NCI-H727 | 0.375 | 0.473 | 0.326 | 0.49 | 0.41 | 0.875 | 0.894 | 0.989 | 0.722 | 0.866 | 0.341 | 0.237 | 0.335 | 1.02 | 0.326 | 0.742 | 1.13 | 0.979 | 0.704 | – |
| NCI-H838 | 0.271 | 0.262 | 0.226 | 0.27 | 0.207 | 0.423 | 0.451 | 0.471 | 0.501 | 0.449 | 0.324 | 0.179 | 0.263 | 0.386 | 0.272 | 0.869 | 0.904 | 0.624 | 0.564 | 0.952 |
| NCI-H1355 | 0.763 | 0.638 | 0.476 | 0.553 | 0.554 | 0.364 | 0.342 | 0.348 | – | 0.349 | 0.808 | 0.67 | 0.465 | 0.681 | 0.676 | 1.3 | 1.33 | 0.978 | 1.16 | 1.21 |
| NCI-H1437 | 0.409 | 0.309 | 0.335 | 0.392 | 0.345 | 0.573 | 0.513 | 0.658 | 0.63 | 0.547 | 1.21 | 1.11 | 1.27 | 0.984 | 0.95 | 0.599 | 0.495 | 0.486 | 0.469 | 0.496 |
| NCI-H1650 | 0.304 | 0.361 | 0.281 | 0.295 | 0.342 | 0.474 | 0.593 | 0.391 | 0.366 | 0.445 | 0.206 | 0.208 | 0.219 | 0.197 | 0.209 | 0.194 | 0.22 | 0.203 | 0.195 | 0.171 |
| NCI-H1651 | 0.416 | 0.439 | 0.356 | 0.325 | 0.367 | 0.627 | 0.672 | 0.522 | 0.357 | 0.579 | 0.9 | 0.767 | 0.789 | 0.836 | 0.867 | 0.988 | 0.995 | 0.946 | 0.89 | 0.977 |
| NCI-H1666 | 0.812 | 0.792 | 0.801 | 0.794 | 0.808 | 0.802 | 0.714 | 0.718 | 0.738 | 0.784 | 0.966 | 0.965 | 0.96 | 1 | 0.95 | 0.811 | 0.926 | 0.728 | 0.727 | 0.831 |
| NCI-H1734 | 0.409 | 0.465 | 0.444 | 0.454 | 0.401 | 0.6 | 0.541 | 0.548 | 0.5 | 0.419 | 0.183 | 0.185 | 0.177 | 0.192 | 0.178 | 0.936 | 0.906 | – | 0.874 | 0.93 |
